# US20030216416A1, “Novel crystalline of n-[4-[2-(2-amino-4,7-dihydro-4oxo-3h-pyrrolo[2,3-d]pyrimidin-5-yl)ethyl]benzoyl]-l-glutamic acid and process therefor” (priority 2002, published 2003)
# Experiments:
# [1] = Stability study: solvents (water) content of crystalline form lots on storage
# [2] = Stability study: total related substances of crystalline form lots on storage
# [3] = heptahydrate lot stored at 5° C.
# [4] = heptahydrate lot, 25° C./60% relative humidity and room temperature/uncontrolled humidity
# [5] = accelerated conditions 30° C., 0 months
# [6] = accelerated conditions 30° C., 1 month
# [7] = accelerated conditions 30° C., 2 months
# [8] = accelerated conditions 30° C., 3 months
# [9] = accelerated conditions 30° C., 6 months
# [10] = stored at 5° C., 0 months, lots A-C water and ethanol, lot D water only
# [11] = 2.5 hydrate lots stored at 5° C.
# [12] = accelerated conditions 25° C., 60% relative humidity
structure (smiles),measurement,setting,value
"Nc1nc2[nH]cc(CCc3ccc(C(=O)N[C@@H](CCC(=O)[O-])C(=O)[O-])cc3)c2c(=O)[nH]1.[Na+].[Na+] [Heptahydrate Lot, disodium N-[4-[2-(2-amino-4,7-dihydro-4-oxo-3H-pyrrolo[2,3-d]-pyrimidin-5-yl)ethyl]benzoyl]-L-glutamic acid salt]",Solvents (Water) Results,"[1]; 5° C., time 0",21.0%
same,Solvents (Water) Results,"[1]; 5° C., time 0.5",21.0%
same,Solvents (Water) Results,"[1]; 5° C., time 1",20.6%
same,Solvents (Water) Results,"[1]; 5° C., time 2",21.1%
same,Solvents (Water) Results,"[1]; 5° C., time 3",21.3%
same,Solvents (Water) Results,"[1]; 5° C., time 6",21.1%
same,Solvents (Water) Results,"[1]; 5° C., time 9",21.1%
same,Solvents (Water) Results,"[1]; 5° C., time 12",21.9%
same,Solvents (Water) Results,"[1]; 25° C./60% RH, time 0",21.0%
same,Solvents (Water) Results,"[1]; 25° C./60% RH, time 0.25",21.1%
same,Solvents (Water) Results,"[1]; 25° C./60% RH, time 0.5",21.1%
same,Solvents (Water) Results,"[1]; 25° C./60% RH, time 0.75",20.1%
same,Solvents (Water) Results,"[1]; 25° C./60% RH, time 1",20.1%
same,Solvents (Water) Results,"[1]; 25° C./60% RH, time 3",20.7%
same,Solvents (Water) Results,"[1]; 25° C./60% RH, time 6",21.3%
same,Solvents (Water) Results,"[1]; 25° C./60% RH, time 12",21.7%
same,Solvents (Water) Results,"[1]; RT/uncontrolled RH, time 0",21.0%
same,Solvents (Water) Results,"[1]; RT/uncontrolled RH, time 0.25",21.3%
same,Solvents (Water) Results,"[1]; RT/uncontrolled RH, time 0.5",20.8%
same,Solvents (Water) Results,"[1]; RT/uncontrolled RH, time 0.75",20.6%
same,Solvents (Water) Results,"[1]; RT/uncontrolled RH, time 1",20.6%
same,Solvents (Water) Results,"[1]; RT/uncontrolled RH, time 2",21.1%
same,Solvents (Water) Results,"[1]; RT/uncontrolled RH, time 3",21.1%
same,change in water content over time,[1]; [3],does not change significantly over time
same,water content,[1]; [3],approximately 21%
same,change in water content over time,[1]; [4],does not change significantly over time
same,water content,[1]; [4],approximately 21%
same,Total Related Substances Results,"[2]; 5 C., 0 mo.",0.41%
same,Total Related Substances Results,"[2]; 5 C., 0.5 mo.",0.42%
same,Total Related Substances Results,"[2]; 5 C., 1 mo.",0.43%
same,Total Related Substances Results,"[2]; 5 C., 2 mo.",0.45%
same,Total Related Substances Results,"[2]; 5 C., 3 mo.",0.42%
same,Total Related Substances Results,"[2]; 5 C., 6 mo.",0.42%
same,Total Related Substances Results,"[2]; 5 C., 9 mo.",0.40%
same,Total Related Substances Results,"[2]; 5 C., 12 mo.",0.42%
same,Total Related Substances Results,"[2]; 25 C./60% RH, 0 mo.",0.41%
same,Total Related Substances Results,"[2]; 25 C./60% RH, 0.25 mo.",0.40%
same,Total Related Substances Results,"[2]; 25 C./60% RH, 0.5 mo.",0.44%
same,Total Related Substances Results,"[2]; 25 C./60% RH, 0.75 mo.",0.39%
same,Total Related Substances Results,"[2]; 25 C./60% RH, 1 mo.",0.43%
same,Total Related Substances Results,"[2]; 25 C./60% RH, 3 mo.",0.42%
same,Total Related Substances Results,"[2]; 25 C./60% RH, 6 mo.",0.42%
same,Total Related Substances Results,"[2]; 25 C./60% RH, 12 mo.",0.39%
same,Total Related Substances Results,"[2]; RT/uncontrolled, 0 mo.",0.41%
same,Total Related Substances Results,"[2]; RT/uncontrolled, 0.25 mo.",0.40%
same,Total Related Substances Results,"[2]; RT/uncontrolled, 0.5 mo.",0.43%
same,Total Related Substances Results,"[2]; RT/uncontrolled, 0.75 mo.",0.41%
same,Total Related Substances Results,"[2]; RT/uncontrolled, 1 mo.",0.43%
same,Total Related Substances Results,"[2]; RT/uncontrolled, 2 mo.",0.44%
same,Total Related Substances Results,"[2]; RT/uncontrolled, 3 mo.",0.42%
same,change in the percent total related substances over time,[2]; [3],did not change significantly over time
same,change in the percent total related substances over time,[2]; heptahydrate lot stored at accelerated conditions,did not change significantly over time
"Nc1nc2[nH]cc(CCc3ccc(C(=O)N[C@@H](CCC(=O)O)C(=O)O)cc3)c2c(=O)[nH]1 [Lot C, pemetrexed disodium]",Solvents Results,[1]; [5],8.8% of Total
same,Solvents Results,[1]; [6],20.6% of Total
same,Solvents Results,[1]; [7],19.3% of Total
same,Solvents Results,[1]; [8],17.2% of Total
same,Solvents Results,[1]; [9],8.9% of Total
same,Solvents Results,[1]; [10],8.8% of Total
same,Solvents Results,"[1]; stored at 5° C., 3 months",16.7% of Total
same,Solvents Results,"[1]; stored at 5° C., 6 months",8.8% of Total
same,Solvents Results,"[1]; stored at 5° C., 12 months",21.0% of Total
same,Solvents Results,"[1]; stored at 5° C., 18 months",20.8% of Total
same,Solvents Results,"[1]; stored at 5° C., 24 months",20.4% of Total
same,change in the percent total related substances over time,[2]; [11],did increase somewhat over time
same,change in the percent total related substances over time,[2]; accelerated conditions 30° C.,did change significantly over time
same,Total Related Substances Results,[2]; [5],0.38% of Total
same,Total Related Substances Results,[2]; [6],0.6% of Total
same,Total Related Substances Results,[2]; [7],0.76% of Total
same,Total Related Substances Results,[2]; [8],0.79% of Total
same,Total Related Substances Results,[2]; [9],1.33% of Total
same,Total Related Substances Results,"[2]; stored at 5° C., 0 months",0.38% of Total
same,Total Related Substances Results,"[2]; stored at 5° C., 3 months",0.79% of Total
same,Total Related Substances Results,"[2]; stored at 5° C., 6 months",0.79% of Total
same,Total Related Substances Results,"[2]; stored at 5° C., 12 months",0.51% of Total
same,Total Related Substances Results,"[2]; stored at 5° C., 18 months",0.43% of Total
same,Total Related Substances Results,"[2]; stored at 5° C., 24 months",0.44% of Total
"Nc1nc2[nH]cc(CCc3ccc(C(=O)N[C@@H](CCC(=O)O)C(=O)O)cc3)c2c(=O)[nH]1 [Lot B, pemetrexed disodium]",Solvents Results,[1]; [5],11.0% of Total
same,Solvents Results,[1]; [6],15.5% of Total
same,Solvents Results,[1]; [7],12.9% of Total
same,Solvents Results,[1]; [8],11.5% of Total
same,Solvents Results,[1]; [9],11.2% of Total
same,Solvents Results,[1]; [10],11.0% of Total
same,Solvents Results,"[1]; stored at 5° C., 3 months",21.0% of Total
same,Solvents Results,"[1]; stored at 5° C., 6 months",21.1% of Total
same,Solvents Results,"[1]; stored at 5° C., 12 months",21.0% of Total
same,change in the percent total related substances over time,[2]; [11],did not change significantly over time
same,change in the percent total related substances over time,[2]; accelerated conditions 30° C.,did change significantly over time
same,Total Related Substances Results,[2]; [5],0.4% of Total
same,Total Related Substances Results,[2]; [6],0.4% of Total
same,Total Related Substances Results,[2]; [7],0.7% of Total
same,Total Related Substances Results,[2]; [8],0.6% of Total
same,Total Related Substances Results,[2]; [9],1.2% of Total
same,Total Related Substances Results,"[2]; stored at 5° C., 0 months",0.4% of Total
same,Total Related Substances Results,"[2]; stored at 5° C., 3 months",0.3% of Total
same,Total Related Substances Results,"[2]; stored at 5° C., 6 months",0.5% of Total
same,Total Related Substances Results,"[2]; stored at 5° C., 12 months",0.4% of Total
"Nc1nc2[nH]cc(CCc3ccc(C(=O)N[C@@H](CCC(=O)O)C(=O)O)cc3)c2c(=O)[nH]1 [Lot D, pemetrexed disodium]",change in water content over time,[1]; [12],shows an increase in water content to the heptahydrate form
same,Solvents Results,"[1]; accelerated conditions 25° C., 60% relative humidity, 0 months, water only",8.5% of Total
same,Solvents Results,"[1]; accelerated conditions 25° C., 60% relative humidity, 1 month, water only",14.0% of Total
same,Solvents Results,"[1]; accelerated conditions 25° C., 60% relative humidity, 2 months, water only",20.5% of Total
same,Solvents Results,"[1]; accelerated conditions 25° C., 60% relative humidity, 3 months, water only",20.8% of Total
same,Solvents Results,"[1]; accelerated conditions 25° C., 60% relative humidity, 6 months, water only",21.2% of Total
same,Solvents Results,[1]; [10],8.5% of Total
same,Solvents Results,"[1]; stored at 5° C., 3 months",14.0% of Total
same,Solvents Results,"[1]; stored at 5° C., 6 months",18.2% of Total
same,Solvents Results,"[1]; stored at 5° C., 9 months",21.1% of Total
same,Solvents Results,"[1]; stored at 5° C., 12 months",21.7% of Total
same,change in the percent total related substances over time,[2]; [11],did not change significantly over time
same,change in the percent total related substances over time,[2]; [12],did not increase somewhat over time
same,Total Related Substances Results,"[2]; accelerated conditions 25° C., 60% relative humidity, 0 months",0.31% of Total
same,Total Related Substances Results,"[2]; accelerated conditions 25° C., 60% relative humidity, 1 month",0.31% of Total
same,Total Related Substances Results,"[2]; accelerated conditions 25° C., 60% relative humidity, 2 months",0.45% of Total
same,Total Related Substances Results,"[2]; accelerated conditions 25° C., 60% relative humidity, 3 months",0.40% of Total
same,Total Related Substances Results,"[2]; accelerated conditions 25° C., 60% relative humidity, 6 months",0.32% of Total
same,Total Related Substances Results,"[2]; stored at 5° C., 0 months",0.31% of Total
same,Total Related Substances Results,"[2]; stored at 5° C., 3 months",0.35% of Total
same,Total Related Substances Results,"[2]; stored at 5° C., 6 months",0.33% of Total
same,Total Related Substances Results,"[2]; stored at 5° C., 9 months",0.42% of Total
same,Total Related Substances Results,"[2]; stored at 5° C., 12 months",0.24% of Total
